Measured values taken from the supplement of paper PMC10307832.

Tests used:
Assay in all cases: relative viability (nuclei count vs DMSO), 5 days (fraction); higher = more cells survive
A-427 = test system: A-427
Procedure, shortened: (§1)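 For relative viability, nuclei counts in treated wells were divided by those in vehicle wells. Lung cancer cell lines had been pin-tool dosed in 1536-well plates the day after seeding and cultured for 5 days, then fixed and stained in one step (final 0.05% Triton X-100, 1% formaldehyde, 1 ug/ml Hoechst) and imaged at 4×. Doses were one drug alone or a fixed anchor-drug dose plus five library-drug doses (not always all listed) in √10 steps, and values are duplicate-plate medians.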

CAL-12T = test system: CAL-12T
Procedure, shortened: as §1

COR-L 105 = test system: COR-L 105
Procedure, shortened: as §1

COR-L23 = test system: COR-L23
Procedure, shortened: as §1

EPLC-272H = test system: EPLC-272H
Procedure, shortened: as §1

HOP-62 = test system: HOP-62
Procedure, shortened: as §1

LCLC-103H = test system: LCLC-103H
Procedure, shortened: as §1

LXF-289 = test system: LXF-289
Procedure, shortened: as §1

NCI-H1395 = test system: NCI-H1395
Procedure, shortened: as §1

NCI-H1651 = test system: NCI-H1651
Procedure, shortened: as §1

NCI-H1975 = test system: NCI-H1975
Procedure, shortened: as §1

NCI-H1993 = test system: NCI-H1993
Procedure, shortened: as §1

NCI-H2023 = test system: NCI-H2023
Procedure, shortened: as §1

NCI-H2085 = test system: NCI-H2085
Procedure, shortened: as §1

NCI-H2087 = test system: NCI-H2087
Procedure, shortened: as §1

NCI-H2170 = test system: NCI-H2170
Procedure, shortened: as §1

NCI-H3122 = test system: NCI-H3122
Procedure, shortened: as §1

NCI-H596 = test system: NCI-H596
Procedure, shortened: as §1

NCI-H647 = test system: NCI-H647
Procedure, shortened: as §1

NCI-H650 = test system: NCI-H650
Procedure, shortened: as §1

PC-14 = test system: PC-14
Procedure, shortened: as §1

RERF-LC-KJ = test system: RERF-LC-KJ
Procedure, shortened: as §1

SK-MES-1 = test system: SK-MES-1
Procedure, shortened: as §1

O=c1[nH]c2ccccc2n1C1CCN(CCCC(c2ccc(F)cc2)c2ccc(F)cc2)CC1 [Pimozide] + Cc1nc(Nc2ncc(C(=O)Nc3c(C)cccc3Cl)s2)cc(N2CCN(CCO)CC2)n1 [Dasatinib] (partner 0.075 µM)
relative viability (A-427; first compound 0.08 µM): 0.697 | relative viability (A-427; first compound 0.253 µM): 0.701 | relative viability (A-427; first compound 0.8 µM): 0.681 | relative viability (A-427; first compound 2.53 µM): 0.654 | relative viability (A-427; first compound 8 µM): 0.665 | relative viability (CAL-12T; first compound 0.08 µM): 0.378 | relative viability (CAL-12T; first compound 0.253 µM): 0.404 | relative viability (CAL-12T; first compound 0.8 µM): 0.415 | relative viability (CAL-12T; first compound 2.53 µM): 0.333 | relative viability (CAL-12T; first compound 8 µM): 0.259 | relative viability (COR-L 105; first compound 0.253 µM): 0.427 | relative viability (COR-L 105; first compound 0.8 µM): 0.411 | relative viability (COR-L 105; first compound 2.53 µM): 0.293 | relative viability (COR-L 105; first compound 8 µM): 0.301 | relative viability (COR-L23; first compound 0.08 µM): 0.58 | relative viability (COR-L23; first compound 0.253 µM): 0.468 | relative viability (COR-L23; first compound 0.8 µM): 0.53 | relative viability (COR-L23; first compound 2.53 µM): 0.49 | relative viability (COR-L23; first compound 8 µM): 0.455 | relative viability (EPLC-272H; first compound 0.08 µM): 0.298 | relative viability (EPLC-272H; first compound 0.253 µM): 0.322 | relative viability (EPLC-272H; first compound 0.8 µM): 0.385 | relative viability (EPLC-272H; first compound 2.53 µM): 0.293 | relative viability (EPLC-272H; first compound 8 µM): 0.215 | relative viability (HOP-62; first compound 0.08 µM): 0.698 | relative viability (HOP-62; first compound 0.253 µM): 0.617 | relative viability (HOP-62; first compound 2.53 µM): 0.685 | relative viability (HOP-62; first compound 8 µM): 0.651 | relative viability (LCLC-103H; first compound 0.08 µM): 0.531 | relative viability (LCLC-103H; first compound 0.253 µM): 0.373 | relative viability (LCLC-103H; first compound 0.8 µM): 0.371 | relative viability (LCLC-103H; first compound 2.53 µM): 0.518 | relative viability (LCLC-103H; first compound 8 µM): 0.549 | relative viability (LXF-289; first compound 0.08 µM): 0.236 | relative viability (LXF-289; first compound 0.253 µM): 0.277 | relative viability (LXF-289; first compound 0.8 µM): 0.241 | relative viability (LXF-289; first compound 2.53 µM): 0.205 | relative viability (LXF-289; first compound 8 µM): 0.226 | relative viability (NCI-H1395; first compound 0.08 µM): 0.388 | relative viability (NCI-H1395; first compound 0.253 µM): 0.382 | relative viability (NCI-H1395; first compound 0.8 µM): 0.355 | relative viability (NCI-H1395; first compound 2.53 µM): 0.403 | relative viability (NCI-H1395; first compound 8 µM): 0.361 | relative viability (NCI-H1651; first compound 0.08 µM): 0.436 | relative viability (NCI-H1651; first compound 0.253 µM): 0.455 | relative viability (NCI-H1651; first compound 0.8 µM): 0.388 | relative viability (NCI-H1651; first compound 2.53 µM): 0.399 | relative viability (NCI-H1651; first compound 8 µM): 0.391 | relative viability (NCI-H1975; first compound 0.08 µM): 0.415 | relative viability (NCI-H1975; first compound 0.253 µM): 0.342 | relative viability (NCI-H1975; first compound 0.8 µM): 0.345 | relative viability (NCI-H1975; first compound 2.53 µM): 0.346 | relative viability (NCI-H1975; first compound 8 µM): 0.294 | relative viability (NCI-H1993; first compound 0.08 µM): 0.649 | relative viability (NCI-H1993; first compound 0.253 µM): 0.597 | relative viability (NCI-H1993; first compound 0.8 µM): 0.464 | relative viability (NCI-H1993; first compound 2.53 µM): 0.664 | relative viability (NCI-H1993; first compound 8 µM): 0.332 | relative viability (NCI-H2023; first compound 0.08 µM): 0.497 | relative viability (NCI-H2023; first compound 0.253 µM): 0.547 | relative viability (NCI-H2023; first compound 0.8 µM): 0.518 | relative viability (NCI-H2023; first compound 2.53 µM): 0.438 | relative viability (NCI-H2023; first compound 8 µM): 0.451 | relative viability (NCI-H2085; first compound 0.08 µM): 0.209 | relative viability (NCI-H2085; first compound 0.253 µM): 0.249 | relative viability (NCI-H2085; first compound 0.8 µM): 0.221 | relative viability (NCI-H2085; first compound 2.53 µM): 0.232 | relative viability (NCI-H2085; first compound 8 µM): 0.257 | relative viability (NCI-H2087; first compound 0.08 µM): 0.905 | relative viability (NCI-H2087; first compound 0.253 µM): 0.724 | relative viability (NCI-H2087; first compound 2.53 µM): 0.642 | relative viability (NCI-H2087; first compound 8 µM): 0.672 | relative viability (NCI-H2170; first compound 0.08 µM): 0.432 | relative viability (NCI-H2170; first compound 0.253 µM): 0.475 | relative viability (NCI-H2170; first compound 0.8 µM): 0.627 | relative viability (NCI-H2170; first compound 2.53 µM): 0.555 | relative viability (NCI-H2170; first compound 8 µM): 0.599 | relative viability (NCI-H3122; first compound 0.08 µM): 0.885 | relative viability (NCI-H3122; first compound 0.253 µM): 0.861 | relative viability (NCI-H3122; first compound 0.8 µM): 0.385 | relative viability (NCI-H3122; first compound 2.53 µM): 0.851 | relative viability (NCI-H3122; first compound 8 µM): 0.688 | relative viability (NCI-H596; first compound 0.08 µM): 0.565 | relative viability (NCI-H596; first compound 0.253 µM): 0.572 | relative viability (NCI-H596; first compound 0.8 µM): 0.624 | relative viability (NCI-H596; first compound 2.53 µM): 0.553 | relative viability (NCI-H596; first compound 8 µM): 0.662 | relative viability (NCI-H647; first compound 0.08 µM): 0.41 | relative viability (NCI-H647; first compound 0.253 µM): 0.233 | relative viability (NCI-H647; first compound 0.8 µM): 0.198 | relative viability (NCI-H647; first compound 2.53 µM): 0.179 | relative viability (NCI-H647; first compound 8 µM): 0.162 | relative viability (NCI-H650; first compound 0.08 µM): 0.501 | relative viability (NCI-H650; first compound 0.253 µM): 0.454 | relative viability (NCI-H650; first compound 0.8 µM): 0.453 | relative viability (NCI-H650; first compound 2.53 µM): 0.487 | relative viability (NCI-H650; first compound 8 µM): 0.498 | relative viability (PC-14; first compound 0.08 µM): 0.027 | relative viability (PC-14; first compound 0.253 µM): 0.241 | relative viability (PC-14; first compound 0.8 µM): 0.272 | relative viability (PC-14; first compound 2.53 µM): 0.306 | relative viability (PC-14; first compound 8 µM): 0.18 | relative viability (RERF-LC-KJ; first compound 0.08 µM): 0.775 | relative viability (RERF-LC-KJ; first compound 0.253 µM): 0.611 | relative viability (RERF-LC-KJ; first compound 0.8 µM): 0.696 | relative viability (RERF-LC-KJ; first compound 2.53 µM): 0.66 | relative viability (RERF-LC-KJ; first compound 8 µM): 0.501 | relative viability (SK-MES-1; first compound 0.08 µM): 0.313 | relative viability (SK-MES-1; first compound 0.253 µM): 0.41 | relative viability (SK-MES-1; first compound 0.8 µM): 0.358 | relative viability (SK-MES-1; first compound 2.53 µM): 0.325 | relative viability (SK-MES-1; first compound 8 µM): 0.336
